Measurements as given in US12226412B2, “Heteroaryl-ketone fused azadecalin glucocorticoid receptor modulators” (Corcept Therapeutics, Inc., priority 2012, dated 2025).
Like-named read-outs stand apart in the source and are kept apart here.

Tests used:
human recombinant GR = target: T1, human recombinant GR (Homo sapiens, UniProt P04150); assay: Human glucocorticoid receptor (GR) fluorescence polarisation (FP) binding assay
T1 construct: purchased PanVera P2812
T1 sequence (P04150 1-777): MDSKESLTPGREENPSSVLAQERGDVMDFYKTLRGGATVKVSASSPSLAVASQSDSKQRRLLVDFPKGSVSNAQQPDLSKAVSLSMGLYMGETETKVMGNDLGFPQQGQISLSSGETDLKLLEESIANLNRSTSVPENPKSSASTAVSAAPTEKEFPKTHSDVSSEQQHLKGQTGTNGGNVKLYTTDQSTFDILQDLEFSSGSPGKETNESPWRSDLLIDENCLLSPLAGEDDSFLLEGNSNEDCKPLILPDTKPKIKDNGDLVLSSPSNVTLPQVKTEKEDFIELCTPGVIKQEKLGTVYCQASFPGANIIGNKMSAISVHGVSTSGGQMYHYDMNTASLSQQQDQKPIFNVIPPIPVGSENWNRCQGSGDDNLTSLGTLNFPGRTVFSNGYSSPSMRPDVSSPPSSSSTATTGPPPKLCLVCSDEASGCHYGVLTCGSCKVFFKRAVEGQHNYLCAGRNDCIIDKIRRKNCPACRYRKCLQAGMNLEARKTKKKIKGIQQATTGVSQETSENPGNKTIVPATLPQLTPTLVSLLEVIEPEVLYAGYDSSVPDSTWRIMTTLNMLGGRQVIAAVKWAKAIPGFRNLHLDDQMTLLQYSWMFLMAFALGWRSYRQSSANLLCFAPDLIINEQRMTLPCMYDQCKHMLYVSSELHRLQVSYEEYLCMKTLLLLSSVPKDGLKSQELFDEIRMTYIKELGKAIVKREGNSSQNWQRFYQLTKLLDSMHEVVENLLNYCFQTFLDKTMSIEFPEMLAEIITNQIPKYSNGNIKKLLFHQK
Method in brief: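 Competition fluorescence polarisation: 0.5 nM GS Red labelled glucocorticoid and 1 nM recombinant human GR with 8-point half-log compound series, 1% DMSO, 4 h room temperature, potassium phosphate pH 7.4 buffer with molybdate, EDTA, DTT. Affinity derived from the drop in polarisation, normalised to blank wells.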

[1] = test system: induction of TAT by dexamethasone in HepG2 cells; assay: HepG2 tyrosine aminotransferase (TAT) assay; assay type: cell-based, human
[2] = human recombinant GR, fluorescence polarisation binding assay, read-out: GR binding
[3] = HepG2 cells, challenge of 100 nM dexamethasone, Ki from IC50 by Cheng and Prusoff equation

| Ki (human recombinant GR; [2]) [nM] | Structure (SMILES) | Ki [1, 3] [nM] | Ki (human recombinant GR) [nM] | Ki [1] [nM] |
| --- | --- | --- | --- | --- |
| 0.5 to 1 | Cn1ccc(S(=O)(=O)N2CCC3=Cc4c(cnn4-c4ccc(Cl)cc4)C[C@]3(C(=O)c3cc(C(F)(F)F)ccn3)C2)n1 [Example 11BR, (R)-(1-(4-chlorophenyl)-6-((1-methyl-1H-pyrazol-3-yl)sulfonyl)-4,4a,5,6,7,8-hexahydro-1H-pyrazolo[3,4-g]isoquinolin-4a-yl)(4-(trifluoromethyl)pyridin-2-yl)methanone] | < 20 | – | – |
| < 0.5 | Cc1ccnc(C(=O)[C@]23Cc4cnn(-c5ccc(F)cc5)c4C=C2CCN(S(=O)(=O)c2cc(C)nn2C)C3)c1 [Example 11BA, (R)-(6-((1,3-dimethyl-1H-pyrazol-5-yl)sulfonyl)-1-(4-fluorophenyl)-4,4a,5,6,7,8-hexahydro-1H-pyrazolo[3,4-g]isoquinolin-4a-yl)(4-methylpyridin-2-yl)methanone] | < 20 | – | – |
| < 0.5 | COc1ccc(S(=O)(=O)N2CCC3=Cc4c(cnn4-c4ccc(F)cc4)C[C@]3(C(=O)c3ccccn3)C2)cc1 [Example 2I, (R)-(1-(4-fluorophenyl)-6-((4-methoxyphenyl)sulfonyl)-4,4a,5,6,7,8-hexahydro-1H-pyrazolo[3,4-g]isoquinolin-4a-yl)(pyridin-2-yl)methanone] | < 20 | – | – |
| < 0.5 | Cn1ncc(S(=O)(=O)N2CCC3=Cc4c(cnn4-c4ccc(F)cc4)C[C@]3(C(=O)c3cscn3)C2)n1 (single isomer, unassigned) [Example 11DA] | < 20 | – | – |
| 0.5 to 1 | Cn1ccnc1S(=O)(=O)N1CCC2=Cc3c(cnn3-c3ccc(F)cc3)C[C@]2(C(=O)c2cc(C(F)(F)F)ccn2)C1 [Example 11BX, (R)-(1-(4-fluorophenyl)-6-((1-methyl-1H-imidazol-2-yl)sulfonyl)-4,4a,5,6,7,8-hexahydro-1H-pyrazolo[3,4-g]isoquinolin-4a-yl)(4-(trifluoromethyl)pyridin-2-yl)methanone] | < 20 | – | – |
| < 0.5 | Cn1cc(S(=O)(=O)N2CCC3=Cc4c(cnn4-c4ccc(F)cc4)C[C@]3(C(=O)c3ccccn3)C2)c(C(F)(F)F)n1 [Example 11BP, (R)-(1-(4-fluorophenyl)-6-((1-methyl-3-(trifluoromethyl)-1H-pyrazol-4-yl)sulfonyl)-4,4a,5,6,7,8-hexahydro-1H-pyrazolo[3,4-g]isoquinolin-4a-yl)(pyridin-2-yl)methanone] | ≥ 100 | – | – |
| – | O=C(c1ccccn1)[C@]12Cc3cnn(-c4ccc(F)cc4)c3C=C1CCN(S(=O)(=O)c1ccc(Cl)c(Cl)c1)C2 [Example 11AF, (R)-(6-((3,4-dichlorophenyl)sulfonyl)-1-(4-fluorophenyl)-4,4a,5,6,7,8-hexahydro-1H-pyrazolo[3,4-g]isoquinolin-4a-yl)(pyridin-2-yl)methanone] | – | < 0.5 | < 20 |
| < 0.5 | Cc1ccnc(C(=O)[C@]23Cc4cnn(-c5ccc(F)cc5)c4C=C2CCN(S(=O)(=O)c2cccc(C#N)c2)C3)c1 [Example 11S, (R)-3-((1-(4-fluorophenyl)-4a-(4-methylpicolinoyl)-4a,5,7,8-tetrahydro-1H-pyrazolo[3,4-g]isoquinolin-6 (4H)-yl)sulfonyl)benzonitrile] | < 20 | – | – |
| < 0.5 | Cn1ncc(S(=O)(=O)N2CCC3=Cc4c(cnn4-c4ccc(F)cc4)C[C@]3(C(=O)c3nccs3)C2)n1 (single isomer, unassigned) [Example 12Z] | ≥ 100 | – | – |
| < 0.5 | O=C(c1ccccn1)[C@]12Cc3cnn(-c4ccc(F)cc4)c3C=C1CCN(S(=O)(=O)c1ccc(N3CCCC3)cc1)C2 [Example 10, (R)-(1-(4-fluorophenyl)-6-((4-(pyrrolidin-1-yl)phenyl)sulfonyl)-4,4a,5,6,7,8-hexahydro-1H-pyrazolo[3,4-g]isoquinolin-4a-yl)(pyridin-2-yl)methanone] | ≥ 100 | – | – |
| < 0.5 | Cc1ccnc(C(=O)[C@]23Cc4cnn(-c5ccc(F)cc5)c4C=C2CCN(S(=O)(=O)c2cccc(C(F)(F)F)c2)C3)c1 [Example 11AG, (R)-(1-(4-fluorophenyl)-6-((3-(trifluoromethyl)phenyl)sulfonyl)-4,4a,5,6,7,8-hexahydro-1H-pyrazolo[3,4-g]isoquinolin-4a-yl)(4-methylpyridin-2-yl)methanone] | < 20 | – | – |
| 0.5 to 1 | Cc1cnc(C(=O)[C@]23Cc4cnn(-c5ccc(F)cc5)c4C=C2CCN(S(=O)(=O)c2ccc(Cl)c(F)c2)C3)s1 [Example 12R, (R)-(6-((4-chloro-3-fluorophenyl)sulfonyl)-1-(4-fluorophenyl)-4,4a,5,6,7,8-hexahydro-1H-pyrazolo[3,4-g]isoquinolin-4a-yl)(5-methylthiazol-2-yl)methanone] | < 20 | – | – |
| 0.5 to 1 | O=C(c1nccs1)[C@]12Cc3cnn(-c4ccc(F)cc4)c3C=C1CCN(S(=O)(=O)CC1CCCO1)C2 (mixture of isomers) [Example 2B, ((4a R)-1-(4-fluorophenyl)-6-((((R/S)-tetrahydrofuran-2-yl)methyl)sulfonyl)-4,4a,5,6,7,8-hexahydro-1H-pyrazolo[3,4-g]isoquinolin-4a-yl)(thiazol-2-yl)methanone] | ≥ 100 | – | – |
| < 0.5 | CCn1cc(S(=O)(=O)N2CCC3=Cc4c(cnn4-c4ccc(F)cc4)C[C@]3(C(=O)c3cc(C)ccn3)C2)cn1 [Example 11AH, (R)-(6-((1-ethyl-1H-pyrazol-4-yl)sulfonyl)-1-(4-fluorophenyl)-4,4a,5,6,7,8-hexahydro-1H-pyrazolo[3,4-g]isoquinolin-4a-yl)(4-methylpyridin-2-yl)methanone] | < 20 | – | – |
| < 0.5 | O=C(c1ccccn1)[C@]12Cc3cnn(-c4ccc(F)cc4)c3C=C1CCN(S(=O)(=O)c1ccc(C(F)(F)F)nc1)C2 [Example 2N, (R)-(1-(4-fluorophenyl)-6-((6-(trifluoromethyl)pyridin-3-yl)sulfonyl)-4,4a,5,6,7,8-hexahydro-1H-pyrazolo[3,4-g]isoquinolin-4a-yl) (pyridin-2-yl)methanone] | < 20 | – | – |
| < 0.5 | Cn1ncc(S(=O)(=O)N2CCC3=Cc4c(cnn4-c4ccc(F)cc4)C[C@]3(C(=O)c3cc(C(F)(F)F)ccn3)C2)n1 [Example 11CE, (R)-(1-(4-fluorophenyl)-6-((2-methyl-2H-1,2,3-triazol-4-yl)sulfonyl)-4,4a,5,6,7,8-hexahydro-1H-pyrazolo[3,4-g]isoquinolin-4a-yl)(4-(trifluoromethyl)pyridin-2-yl)methanone] | < 20 | – | – |
| < 0.5 | COCCn1cc(S(=O)(=O)N2CCC3=Cc4c(cnn4-c4ccc(F)cc4)C[C@]3(C(=O)c3ccccn3)C2)cn1 [Example 11CB, (R)-(1-(4-fluorophenyl)-6-((1-(2-methoxyethyl)-1H-pyrazol-4-yl)sulfonyl)-4,4a,5,6,7,8-hexahydro-1H-pyrazolo[3,4-g]isoquinolin-4a-yl)(pyridin-2-yl)methanone] | < 20 | – | – |
| < 0.5 | Cc1cnc(C(=O)[C@]23Cc4cnn(-c5ccc(F)cc5)c4C=C2CCN(S(=O)(=O)c2cccc(C(F)(F)F)c2)C3)s1 [Example 12L, (R)-(1-(4-fluorophenyl)-6-((3-(trifluoromethyl)phenyl)sulfonyl)-4,4a,5,6,7,8-hexahydro-1H-pyrazolo[3,4-g]isoquinolin-4a-yl)(5-methylthiazol-2-yl)methanone] | < 20 | – | – |
